Results on 18 compounds are retold here after patent US11845752B2, “Substituted imidazo[1,5-a]pyrazines for the treatment of hepatitis B” (ALIGOS THERAPEUTICS, INC., priority 2020, dated 2023).

The assay relates to HBV. In words: HBV-DNA antiviral assay using HepG2.117 cells (intracellular HBV DNA by qPCR). In kind it is cell-based, HBV genotype D. Conditions: HBV DNA inhibition, 3 days incubation, read-out: EC50. An outline of the steps: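 HepG2.117 cells (stably integrated genotype D HBV, Tet-off) seeded without doxycycline to induce pgRNA, then treated next day with 9 concentrations (4-fold dilutions, 2% DMSO) for 3 days at 37 °C. Intracellular HBV DNA quantified by qPCR against standard curve, viability by ATP content; inhibition relative to DMSO control, EC50/EC90/CC50 by non-linear regression.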
(In general: Quantitative PCR measures a nucleic acid by following its amplification.)

[1] abbreviates: Hepatitis B virus, HepG2.117, 72 h.

The term EC50 denotes the concentration giving half of the maximal effect.

Like-named read-outs stand apart in the source and are kept apart here. Bounds are passed on as bounds.

As for `CC1(O)CCN(c2ccc(-n3c(C(=O)NCc4ccccc4)c4n(c3=O)CCN(C(=O)c3ccc(Br)c(Cl)c3)C4)cc2)C1` (single isomer, unassigned) [Compound 115a], under setting [1], the EC50 fell in the range of 0.05 to 0.5 µM.

In the case of `CC1(O)CCN(c2ccc(-n3c(C(=O)NCc4ccccc4)c4n(c3=O)CCN(C(=O)c3ccc(Br)c(Cl)c3)C4)cc2)C1` (single isomer, unassigned) [Compound 115b], the EC50 is 0.05 to 0.5 µM.

For `O=C(NCc1ccccc1)c1c2n(c(=O)n1-c1ccc(N3CC4CC[C@H]3CO4)cc1)CCN(C(=O)c1ccc(Br)c(Cl)c1)C2` (single isomer, unassigned) [Compound 125a], the EC50 under setting [1] fell in the range of 0.05 to 0.5 µM.

Take `O=C(NCc1ccccc1)c1c2n(c(=O)n1-c1ccc(N3CC4CC[C@@H]3CO4)cc1)CCN(C(=O)c1ccc(Br)c(Cl)c1)C2` (single isomer, unassigned) [Compound 125b]: under setting [1], the EC50 was in the range of 0.05 to 0.5 µM.

For `O=C(NCc1ccccc1-c1ncccn1)c1c2n(c(=O)n1-c1ccc(OC3CC3)cc1)CC(CN1CCOCC1)N(C(=O)c1ccc(Br)c(C(F)(F)F)c1)C2` (single isomer, unassigned) [Compound 132a], the EC50 under setting [1] is 0.5 to 5 µM.

`O=C(NCc1ccccc1-c1ncccn1)c1c2n(c(=O)n1-c1ccc(OC3CC3)cc1)CC(CN1CCOCC1)N(C(=O)c1ccc(Br)c(C(F)(F)F)c1)C2` (single isomer, unassigned) [Compound 132b]: the EC50 fell in the range of 0.5 to 5 µM.

Take `CC1Cn2c(c(C(=O)NCc3ccccc3-n3cc(F)cn3)n(-c3ccc(N4CCO[C@H](C)C4)cc3)c2=O)CN1C(=O)c1ccc(Br)c(Cl)c1` (stereo in doubt) [Compound 14a, (6R*)-7-(4-bromo-3-chloro-benzoyl)-N-[[2-(4-fluoropyrazol-1-yl)phenyl]methyl]-6-methyl-2-[4-[(2R)-2-methylmorpholin-4-yl]phenyl]-3-oxo-6,8-dihydro-5H-imidazo[1,5-a]pyrazine-1-carboxamide]: the EC50 under setting [1] lay within 0.05 to 0.5 µM.

`CC1Cn2c(c(C(=O)NCc3ccccc3-n3cc(F)cn3)n(-c3ccc(N4CCO[C@H](C)C4)cc3)c2=O)CN1C(=O)c1ccc(Br)c(Cl)c1` (stereo in doubt) [Compound 14b, (6S*)-7-(4-bromo-3-chloro-benzoyl)-N-[[2-(4-fluoropyrazol-1-yl)phenyl]methyl]-6-methyl-2-[4-[(2R)-2-methylmorpholin-4-yl]phenyl]-3-oxo-6,8-dihydro-5H-imidazo[1,5-a]pyrazine-1-carboxamide]: the EC50 is less than 0.05 µM.

Take `CC1Cn2c(c(C(=O)NCc3ccccc3-c3ccncn3)n(-c3ccc(N4CCO[C@H](C)C4)cc3)c2=O)CN1C(=O)c1ccc(Br)c(Cl)c1` (stereo in doubt) [Compound 15a, (6R*)-7-(4-bromo-3-chloro-benzoyl)-6-methyl-2-[4-[(2R)-2-methylmorpholin-4-yl]phenyl]-3-oxo-N-[(2-pyrimidin-4-ylphenyl)methyl]-6,8-dihydro-5H-imidazo[1,5-a]pyrazine-1-carboxamide]: the EC50 under setting [1] lay in the range of 0.05 to 0.5 µM.

In the case of `CC1Cn2c(c(C(=O)NCc3ccccc3-c3ccncn3)n(-c3ccc(N4CCO[C@H](C)C4)cc3)c2=O)CN1C(=O)c1ccc(Br)c(Cl)c1` (stereo in doubt) [Compound 15b, (6S*)-7-(4-bromo-3-chloro-benzoyl)-6-methyl-2-[4-[(2R)-2-methylmorpholin-4-yl]phenyl]-3-oxo-N-[(2-pyrimidin-4-ylphenyl)methyl]-6,8-dihydro-5H-imidazo[1,5-a]pyrazine-1-carboxamide], the concentration for a half-maximal effect (EC50) is less than 0.05 µM.

Take `CNc1cc(-c2ccccc2CNC(=O)c2c3n(c(=O)n2-c2ccc(OC4CC4)cc2)C[C@@H](C)N(C(=O)c2ccc(Br)c(Cl)c2)C3)ncn1` (stereo in doubt) [Compound 39a, rac-(6R)-7-(4-bromo-3-chloro-benzoyl)-2-[4-(cyclopropoxy)phenyl]-(methylamino)pyrimidin-4-6-methyl-N-[[246-yl]phenyl]methyl]-3-oxo-6,8-dihydro-5H-imidazo[1,5-a]pyrazine-1-carboxamide]: the EC50 under setting [1] lay in the range of 0.05 to 0.5 µM.

Take `CNc1cc(-c2ccccc2CNC(=O)c2c3n(c(=O)n2-c2ccc(OC4CC4)cc2)C[C@H](C)N(C(=O)c2ccc(Br)c(Cl)c2)C3)ncn1` (stereo in doubt) [Compound 39b, rac-(6S)-7-(4-bromo-3-chloro-benzoyl)-2-[4-(cyclopropoxy)phenyl]-6-methyl-N-[[246-(methylamino)pyrimidin-4-yl]phenyl]methyl]-3-oxo-6,8-dihydro-5H-imidazo[1,5-a]pyrazine-1-carboxamide]: the EC50 under setting [1] is less than 0.05 µM.

In the case of `CC1Cn2c(c(C(=O)NCc3ccccc3-c3ccncn3)n(-c3ccc(OC[C@@H](C)O)cc3)c2=O)CN1C(=O)c1ccc(Br)c(C(F)(F)F)c1` (stereo in doubt) [Compound 55a, (6R*)-7-[4-bromo-3-(trifluoromethyl)benzoyl]-2-{4-[(2R)-2-hydroxypropoxy]phenyl}-6-methyl-3-oxo-N-{[2-(pyrimidin-4-yl)phenyl]methyl}-5H,6H,8H-imidazo[1,5-a]pyrazine-1-carboxamide], the EC50 under setting [1] was in the range of 0.05 to 0.5 µM.

In the case of `CC1Cn2c(c(C(=O)NCc3ccccc3-c3ccncn3)n(-c3ccc(OC[C@@H](C)O)cc3)c2=O)CN1C(=O)c1ccc(Br)c(C(F)(F)F)c1` (stereo in doubt) [Compound 55b, (6S*)-7-[4-bromo-3-(trifluoromethyl)benzoyl]-2-{4-[(2R)-2-hydroxypropoxy]phenyl}-6-methyl-3-oxo-N-{[2-(pyrimidin-4-yl)phenyl]methyl}-5H,6H,8H-imidazo[1,5-a]pyrazine-1-carboxamide], the EC50 is less than 0.05 µM.

As to `C[C@H]1Cn2c(c(C(=O)NCc3ccccc3-c3ccncn3)n(-c3ccc(OC[C@@H](O)C(F)(F)F)cc3)c2=O)CN1C(=O)c1ccc(Br)c(C(F)(F)F)c1` (stereo in doubt) [Compound 62b], the EC50 under setting [1] is 0.05 to 0.5 µM.

In the case of `C[C@@H]1Cn2c(c(C(=O)NCc3ccccc3-c3ccncn3)n(-c3ccc(OC[C@H](O)C(F)(F)F)cc3)c2=O)CN1C(=O)c1ccc(Br)c(C(F)(F)F)c1` (stereo in doubt) [Compound 63a, (6RS)-7-[4-bromo-3-(trifluoromethyl)benzoyl]-6-methyl-3-oxo-N-[(2-pyrimidin-4-ylphenyl)methyl]-2-[4-[(25)-3,3,3-trifluoro-2-hydroxy-propoxy]phenyl]-6,8-dihydro-5H-imidazo[1,5-a]pyrazine-1-carboxamide], the EC50 under setting [1] is less than 0.05 µM.

For the compound `CC1Cn2c(c(C(=O)NCc3ccccc3-c3ncccn3)n(-c3ccc(OC[C@@H](O)C(F)(F)F)cc3)c2=O)CN1C(=O)c1ccc(Br)c(C(F)(F)F)c1` (stereo in doubt) [Compound 71a, (6R*)-7-[4-bromo-3-(trifluoromethyl)benzoyl]-6-methyl-3-oxo-N-{[2-(pyrimidin-2-yl)phenyl]methyl}-2-{4-[(2R)-3,3,3-trifluoro-2-hydroxypropoxy]phenyl}-5H,6H,8H-imidazo[1,5-a]pyrazine-1-carboxamide], under setting [1], the EC50 is less than 0.05 µM.

Consider `CC1Cn2c(c(C(=O)NCc3ccccc3-c3ncccn3)n(-c3ccc(OC[C@@H](O)C(F)(F)F)cc3)c2=O)CN1C(=O)c1ccc(Br)c(C(F)(F)F)c1` (stereo in doubt) [Compound 71b, (6S*)-7-[4-bromo-3-(trifluoromethyl)benzoyl]-6-methyl-3-oxo-N-{[2-(pyrimidin-2-yl)phenyl]methyl}-2-{4-[(2R)-3,3,3-trifluoro-2-hydroxypropoxy]phenyl}-5H,6H,8H-imidazo[1,5-a]pyrazine-1-carboxamide], for which the EC50 was 0.05 to 0.5 µM.
